Reference: ChEMBL document CHEMBL5678818, “Discovery of potent SOS1 inhibitors that block RAS activation via disruption of the RAS-SOS1 interaction” (Proc Natl Acad Sci U S A, 2019)

Experiments:
[1] = molecular target: 5'-AMP-activated protein kinase catalytic subunit alpha-1 (Homo sapiens) (UniProt Q13131); test: Inhibition of AMPK-alpha1 (unknown origin) assessed as residual activity at 100 nM by KINOMEscan analysis relative to control
[2] = test system: Receptor-type tyrosine-protein kinase FLT3 (Homo sapiens), P36888 [N841I]; test: Inhibition of FLT3 N841I mutant (unknown origin) assessed as residual activity at 100 nM by KINOMEscan analysis relative to control
[3] = molecular target: T1, Serine/threonine-protein kinase ICK (Homo sapiens) (UniProt Q9UPZ9); test: Inhibition of ICK (unknown origin) assessed as residual activity at 100 nM by KINOMEscan analysis relative to control
T1 sequence (whole entry): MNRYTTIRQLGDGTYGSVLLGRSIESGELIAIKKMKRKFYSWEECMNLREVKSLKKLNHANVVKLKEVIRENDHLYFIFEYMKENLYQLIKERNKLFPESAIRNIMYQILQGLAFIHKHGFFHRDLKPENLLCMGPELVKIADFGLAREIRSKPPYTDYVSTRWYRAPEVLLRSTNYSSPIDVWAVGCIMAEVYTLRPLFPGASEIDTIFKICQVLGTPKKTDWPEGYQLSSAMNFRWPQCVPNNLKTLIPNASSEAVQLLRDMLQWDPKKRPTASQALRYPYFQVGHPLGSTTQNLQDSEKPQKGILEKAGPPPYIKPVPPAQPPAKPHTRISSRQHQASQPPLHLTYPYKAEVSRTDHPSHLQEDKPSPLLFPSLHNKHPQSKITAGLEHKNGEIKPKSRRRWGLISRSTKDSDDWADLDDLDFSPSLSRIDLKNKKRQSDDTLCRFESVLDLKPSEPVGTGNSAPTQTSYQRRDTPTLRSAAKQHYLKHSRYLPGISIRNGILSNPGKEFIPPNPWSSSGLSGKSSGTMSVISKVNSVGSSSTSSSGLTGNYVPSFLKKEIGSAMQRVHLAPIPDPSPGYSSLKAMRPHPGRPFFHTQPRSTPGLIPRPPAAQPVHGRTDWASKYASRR

[4] = molecular target: Insulin receptor (Homo sapiens) (UniProt P06213); test: Inhibition of INSR (unknown origin) assessed as residual activity at 100 nM by KINOMEscan analysis relative to control
[5] = molecular target: T2, Mitogen-activated protein kinase kinase kinase 7 (Homo sapiens) (UniProt O43318); test: Inhibition of TAK1 (unknown origin) assessed as residual activity at 100 nM by KINOMEscan analysis relative to control
T2 sequence (whole entry): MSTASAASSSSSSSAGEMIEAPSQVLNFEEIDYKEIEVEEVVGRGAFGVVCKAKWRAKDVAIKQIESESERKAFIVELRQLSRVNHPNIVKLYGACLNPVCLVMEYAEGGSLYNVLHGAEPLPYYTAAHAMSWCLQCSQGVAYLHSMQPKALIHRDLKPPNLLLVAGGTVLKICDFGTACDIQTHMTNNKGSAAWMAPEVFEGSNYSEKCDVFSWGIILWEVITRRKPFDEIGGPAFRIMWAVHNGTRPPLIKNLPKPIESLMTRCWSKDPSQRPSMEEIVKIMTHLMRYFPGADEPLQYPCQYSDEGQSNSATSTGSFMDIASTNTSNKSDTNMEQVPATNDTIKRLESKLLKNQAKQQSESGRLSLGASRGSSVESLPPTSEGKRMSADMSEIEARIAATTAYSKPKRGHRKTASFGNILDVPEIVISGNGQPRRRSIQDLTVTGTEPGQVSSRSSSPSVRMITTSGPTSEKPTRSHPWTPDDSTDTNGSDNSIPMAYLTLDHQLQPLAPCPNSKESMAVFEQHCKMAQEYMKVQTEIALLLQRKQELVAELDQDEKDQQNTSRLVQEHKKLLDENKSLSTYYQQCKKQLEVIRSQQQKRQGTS

Sequence of 5'-AMP-activated protein kinase catalytic subunit alpha-1 (Homo sapiens) (Q13131 whole entry, looked up): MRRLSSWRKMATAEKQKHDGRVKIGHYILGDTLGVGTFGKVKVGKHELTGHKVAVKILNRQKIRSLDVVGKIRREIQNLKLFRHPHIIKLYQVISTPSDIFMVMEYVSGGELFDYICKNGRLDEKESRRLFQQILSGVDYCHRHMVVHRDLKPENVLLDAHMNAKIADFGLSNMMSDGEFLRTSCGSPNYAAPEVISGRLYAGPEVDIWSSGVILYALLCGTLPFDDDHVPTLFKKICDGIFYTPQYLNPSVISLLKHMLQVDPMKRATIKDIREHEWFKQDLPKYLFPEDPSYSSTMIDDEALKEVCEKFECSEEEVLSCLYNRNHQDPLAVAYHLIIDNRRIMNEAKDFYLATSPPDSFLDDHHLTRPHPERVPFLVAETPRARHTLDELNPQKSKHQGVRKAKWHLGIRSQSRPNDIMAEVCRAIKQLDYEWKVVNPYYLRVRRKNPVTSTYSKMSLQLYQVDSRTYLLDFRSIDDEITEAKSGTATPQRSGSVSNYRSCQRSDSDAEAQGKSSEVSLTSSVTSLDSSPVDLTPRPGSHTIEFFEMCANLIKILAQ
Sequence of Insulin receptor (Homo sapiens) (P06213 28-758 limits assumed): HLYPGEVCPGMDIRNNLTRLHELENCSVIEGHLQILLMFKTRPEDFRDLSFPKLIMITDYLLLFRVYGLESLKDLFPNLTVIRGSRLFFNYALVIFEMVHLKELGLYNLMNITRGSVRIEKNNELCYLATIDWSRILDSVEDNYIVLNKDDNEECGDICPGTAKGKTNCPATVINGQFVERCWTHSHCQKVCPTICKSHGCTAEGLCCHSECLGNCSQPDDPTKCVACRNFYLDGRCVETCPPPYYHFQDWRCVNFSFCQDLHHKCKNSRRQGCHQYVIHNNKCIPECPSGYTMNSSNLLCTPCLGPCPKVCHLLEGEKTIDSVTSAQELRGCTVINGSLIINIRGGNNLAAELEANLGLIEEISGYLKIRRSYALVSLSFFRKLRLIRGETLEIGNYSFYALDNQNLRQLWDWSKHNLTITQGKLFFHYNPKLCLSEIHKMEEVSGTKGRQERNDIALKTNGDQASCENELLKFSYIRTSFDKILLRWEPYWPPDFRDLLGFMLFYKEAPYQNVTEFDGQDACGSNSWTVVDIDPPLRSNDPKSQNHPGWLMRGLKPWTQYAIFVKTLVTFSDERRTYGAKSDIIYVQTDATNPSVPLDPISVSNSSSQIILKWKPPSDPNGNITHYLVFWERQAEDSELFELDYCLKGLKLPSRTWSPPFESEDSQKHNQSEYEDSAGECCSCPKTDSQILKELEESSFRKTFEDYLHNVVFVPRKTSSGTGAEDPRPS
Sequence of Insulin receptor (Homo sapiens) (P06213 763-1382 limits assumed): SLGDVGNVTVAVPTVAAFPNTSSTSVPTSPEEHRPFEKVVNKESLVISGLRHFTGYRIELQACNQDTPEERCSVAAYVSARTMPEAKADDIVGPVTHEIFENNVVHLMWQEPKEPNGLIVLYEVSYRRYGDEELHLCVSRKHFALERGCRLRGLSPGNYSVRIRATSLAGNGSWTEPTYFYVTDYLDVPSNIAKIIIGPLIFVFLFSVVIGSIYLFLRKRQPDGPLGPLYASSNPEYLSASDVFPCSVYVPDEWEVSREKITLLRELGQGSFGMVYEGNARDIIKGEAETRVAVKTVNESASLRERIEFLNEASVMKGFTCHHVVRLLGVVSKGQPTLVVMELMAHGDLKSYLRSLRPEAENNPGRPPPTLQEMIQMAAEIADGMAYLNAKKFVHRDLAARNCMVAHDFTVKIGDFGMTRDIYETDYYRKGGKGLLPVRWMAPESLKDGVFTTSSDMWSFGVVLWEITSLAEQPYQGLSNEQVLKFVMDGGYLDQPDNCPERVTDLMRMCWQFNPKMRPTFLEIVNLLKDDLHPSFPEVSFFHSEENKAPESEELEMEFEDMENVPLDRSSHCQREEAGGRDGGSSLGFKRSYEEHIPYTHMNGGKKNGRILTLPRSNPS

Compound: COc1cc2ncnc(N[C@H](C)c3cccc4ccccc34)c2cc1OC
- Activity [1]: 92%
- Activity [2]: 100%
- Activity [3]: 90%
- Activity [4]: 88%
- Activity [5]: 83%
